Read-outs that look alike come from different tables or passages of the source.
What was measured:
[1] = tested on: MPXV strain MOH-NRC-0002/2022, clade II lineage A.2.1; assay: in vitro; conditions: African green monkey, SI (selectivity safety index = CC50/IC50)
[2] = tested on: MPXV strain MOH-NRC-0002/2022, clade II lineage A.2.1; assay: microbe, parasite or virus in culture; conditions: Monkeypox virus
in vitro = conditions: African green monkey
[3] = tested on: MPXV strain MOH-NRC-0002/2022, clade II lineage A.2.1
[4] = tested on: Zr-599 and Liberia strains of MPXV; conditions: cited from earlier work
[5] = tested on: clade I or clade II MPXV infection; conditions: human, in vivo; cited from earlier work
[6] = tested on: MPXV lineage responsible for the 2022 outbreak; conditions: in vivo; cited from earlier work

Compound	selectivity ratio [1]	IC50 ([2]; Vero C1008, 72 h) [µM]	CC50 (in vitro) [µM]	also measured
Nc1nc(NC2CC2)c2ncn([C@H]3C=C[C@@H](CO)C3)c2n1 [Abacavir]	5.46	60.1	328	–
Nc1nc2c(ncn2COCCO)c(=O)[nH]1 [Acyclovir]	–	–	332	–
NC12CC3CC(CC(C3)C1)C2 [Amantadine]	15.2	37.5	570	SI (selectivity safety index = CC50/IC50) ([3]; African green monkey): 15.22
CCN(CC)CCCC(C)Nc1ccnc2cc(Cl)ccc12 (stereo not shown) [Chloroquine]	2.47	102	253	–
COC(=O)N[C@H](C(=O)N1CCC[C@H]1c1nc(-c2ccc(-c3ccc(-c4c[nH]c([C@@H]5CCCN5C(=O)[C@@H](NC(=O)OC)C(C)C)n4)cc3)cc2)c[nH]1)C(C)C [Daclatasvir]	1.99	194	386	–
C[C@@H]1CCO[C@H]2Cn3cc(C(=O)NCc4ccc(F)cc4F)c(=O)c(O)c3C(=O)N12 [Dolutegravir]	7.82	20.5	160	antiviral activity against MPXV (in words) [3]: moderate antiviral activity
C=C1[C@H](CO)[C@@H](O)C[C@@H]1n1cnc2c(=O)[nH]c(N)nc21 [Entecavir]	12	28.1	336	antiviral activity against MPXV (in words) [3]: moderate anti-Mpox activity
NC(=O)c1nc(F)c[nH]c1=O [Favipiravir]	3.41	82.8	283	–
CCN(CCO)CCCC(C)Nc1ccnc2cc(Cl)ccc12 (stereo not shown) [Hydroxychloroquine]	7.41	39.9	296	antiviral activity against MPXV (in words) [3]: moderate antiviral activity
Nc1ccn([C@@H]2CS[C@H](CO)O2)c(=O)n1 [Lamivudine]	–	–	410	–
CC(C)C(=O)OC[C@H]1O[C@@H](n2ccc(NO)nc2=O)[C@H](O)[C@@H]1O [Molnupiravir]	–	5.7	111	IC50 [3]: 5.73 µM; antiviral activity against MPXV (in words) [3]: moderate anti-Mpox activity; IC50 [4]: ~5.2 µM
Cc1ccnc2c1NC(=O)c1cccnc1N2C1CC1 [Nevirapine]	2.61	106	277	–
CCOC(=O)C1=C[C@@H](OC(CC)CC)[C@H](NC(C)=O)[C@@H](N)C1 [Oseltamivir]	4.6	58.5	369	CC50 (Vero-E6 cells; African green monkey): 269 µM
Nc1nc2c(ncn2CCC(CO)CO)c(=O)[nH]1 [Penciclovir]	3.95	70.8	280	IC50 ([2]; Vero C1008): 70.9 µM
CCC(CC)COC(=O)[C@H](C)N[P@](=O)(OC[C@H]1O[C@@](C#N)(c2ccc3c(N)ncnn23)[C@H](O)[C@@H]1O)Oc1ccccc1 [Remdesivir]	–	10	503	–
NC(=O)c1ncn([C@@H]2O[C@H](CO)[C@@H](O)[C@H]2O)n1 [Ribavirin]	1.83	144	262	–
CC(C)OC(=O)[C@H](C)N[P@](=O)(OC[C@H]1O[C@@H](n2ccc(=O)[nH]c2=O)[C@](C)(F)[C@@H]1O)Oc1ccccc1 [Sofosbuvir]	0.61	470	286	–
O=C(NN1C(=O)[C@@H]2[C@@H]3C=C[C@@H]([C@H]4C[C@@H]34)[C@@H]2C1=O)c1ccc(C(F)(F)F)cc1 [Tecovirimat]	–	–	–	lesion resolution time [5]: did not reduce lesion resolution time; safety in randomized clinical trials [5]: safe; survival rates [6]: enhanced the survival rates
CC(C)[C@H](N)C(=O)OCCOCn1cnc2c(=O)[nH]c(N)nc21 [Valaciclovir]	5.42	74.4	404	–
CC(C)[C@H](N)C(=O)OCC(CO)OCn1cnc2c(=O)nc(N)[nH]c21 (stereo partly shown) [Valganciclovir]	5.36	92	494	–
COC[C@H]1C[C@@H](c2ncc(-c3ccc4c(c3)COc3cc5c(ccc6nc([C@@H]7CC[C@H](C)N7C(=O)[C@@H](NC(=O)OC)C(C)C)[nH]c65)cc3-4)[nH]2)N(C(=O)[C@H](NC(=O)OC)c2ccccc2)C1 [Velpatasvir]	0.95	332	316	–
CC(=O)N[C@H]1[C@H]([C@H](O)[C@H](O)CO)OC(C(=O)O)=C[C@@H]1N=C(N)N [Zanamivir]	1.9	189	359	–
Cc1cn([C@H]2C[C@H](N=[N+]=[N-])[C@@H](CO)O2)c(=O)[nH]c1=O [Zidovudine]	2.29	123	282	antiviral activity against MPXV (in words) [3]: limited activity
Tenofovir disoproxil	–	–	–	IC50 [3]: 67.2 µM; SI (selectivity safety index = CC50/IC50) [3]: 4.50; CC50 (Vero-E6 cells): 302 µM

— PMC12736150 (Pharmaceuticals, 2025)
